pIC50: −log10 of the molar value. Entries after “also recorded” stand apart in the source; their conditions may differ.
Experiments:
[1] = system: mice after myocardial infarction surgery; test: Echocardiography 3 weeks after myocardial infarction surgery; format: in vivo, mouse; details: for LV internal diameter (LVID) during diastole / LV posterior wall (LVPW) wall thickness in diastole: between groups (KN-93 1 and 10, KN-92 30 μmol/Kg, AC3-I transgenic, WT); for cardiac hypertrophy / myocardial contractility (positive inotropic effect): FIG. 7; for Left ventricular (LV) fractional shortening: unanesthetized mice, vs WT or KN-92 30 μmol/Kg
Description: FIGS. 7 A-D. CaMKII inhibition improves contractile function after myocardial infarction surgery. […] P<0.001 by ANOVA and asterisks indicate a significant difference compared to WT using a Bonferroni-corrected t test. B. LV internal diameter (LVID) during diastole is a marker of LV chamber dilation. […] C. LV posterior wall (LVPW) wall thickness in diastole is a measure of LV hypertrophy of the non-infarcted wall.
Myocardial infarction surgery: Surgery is routinely performed at the Vanderbilt mouse physiology core laboratory and is essentially identical to other published reports^18 8.^14 In brief, mice are anesthetized (pentobarbital 33 μg/g and ketamine 33 μg/g, i.p.) and placed on a rodent respirator (tidal vol. 0.5 ml, rate 120 breaths/min), the chest opened with a left parasternal thoracotomy, and the region of the mid-left anterior descending artery ligated with 8-0 suture. The chest is closed (running 5-0 suture), and the animal weaned from the respirator. Wild-type mice typically develop heart failure, as assessed by increased lung wet:dry weights. Sham operations omit the ligation step. Approximately 75% of animals survive surgery with a successfully infarcted anterior wall.

CaMKII isoforms = details: cited from earlier work
CAN+ transgenic mice = test: Echocardiography in calcineurin (CAN+) transgenic dilated cardiomyopathy model; details: AC3-I+/CAN+ vs CAN+ mice
transgenic mice = test: Baseline echocardiography of transgenic mice; format: in vivo, mouse
protein kinase A = details: cited from earlier work
CaMKII [2] = test: CaMKII inhibitory potency against a synthetic CaMKII substrate; format: biochemical; details: 'previous studies'
protein kinase C = details: cited from earlier work
CaMKII [3] = test: CaMKII activity assay in heart homogenate with syntide 2; format: in vivo, mouse
Experimental: CaMKII activity assays: CaMKII activity was assayed in AC3-I mice and littermate controls from whole heart (ventricular) homogenate with syntide 2-a synthetic substrate with ˜50 fold selectivity for CaMKII over CaMKIV,^9 using our previously published methods.^1

[4] = diastole or systole, AC3-I transgenic vs WT littermates

## COc1ccc(S(=O)(=O)Nc2ccccc2CN(C)C/C=C/c2ccc(Cl)cc2)cc1 [KN-92]
[1]; 3 weeks after MI surgery
  LV internal diameter (LVID) during diastole: No significant differences
  LV posterior wall (LVPW) wall thickness in diastole: No significant differences

## COc1ccc(S(=O)(=O)N(CCO)c2ccccc2CN(C)C/C=C/c2ccc(Cl)cc2)cc1 [KN-93]
[1]; 3 weeks after MI surgery
  LV internal diameter (LVID) during diastole: No significant differences
  LV posterior wall (LVPW) wall thickness in diastole: No significant differences
[1]
  cardiac hypertrophy: without affecting
  myocardial contractility (positive inotropic effect): increase
[1]; KN-93 1 μmol/Kg body weight daily, 3 weeks after MI surgery
  Left ventricular (LV) fractional shortening: significantly greater
[1]; KN-93 10 μmol/Kg body weight daily, 3 weeks after MI surgery
  Left ventricular (LV) fractional shortening: significantly greater

## KKALHRQEAVDCL [AC3-I]
CaMKII isoforms
  inhibition of CaMKII isoforms: inhibits all CaMKII isoforms
CAN+ transgenic mice
  heart rates: no significant differences
Transgenic mice; baseline, AC3-I transgenic vs WT littermates
  Left ventricular fractional shortening: not different
Transgenic mice; [4]
  Echocardiographic left ventricular dimensions: not significantly different
  Interventricular septal thickness: not different
[1]; 3 weeks after MI surgery, AC3-I transgenic compared to all other groups
  Heart rate: significantly slower
[1]; 3 weeks after MI surgery
  LV internal diameter (LVID) during diastole: No significant differences
  LV posterior wall (LVPW) wall thickness in diastole: No significant differences
[1]
  cardiac hypertrophy: without affecting
  myocardial contractility (positive inotropic effect): increase
[1]; transgenically targeted AC3-I expression, after MI surgery, vs WT littermates
  Left ventricular fractional shortening: significantly better; also recorded: significantly greater
Protein kinase A
  activity against protein kinase A: virtually devoid of activity
CaMKII [2]
  pIC50: 6.30
Protein kinase C
  activity against protein kinase C: virtually devoid of activity
CaMKII [3]; ventricular homogenates, compared to AC3-C mice and WT littermates
  total CaMKII activity: significantly reduced
CaMKII [3]; whole heart homogenates, AC3-I transgenic mice vs WT littermates
  cardiac CaMKII activity: significantly reduced

## KLKALHAQERVDCL [AC3-C]
Transgenic mice; AC3-C transgenic compared to AC3-I mice
  Left ventricular fractional shortening: significantly depressed
Transgenic mice; AC3-C transgenic vs AC3-I mice
  left ventricular internal diameter (LVID) in diastole: significantly greater
CaMKII [3]; AC3-C transgenic mice, FIG. 6
  total CaMKII activity: high
